Where “and” joins values, the source holds several entries; their conditions need not be identical. Identical values can stand only once. Calls of active or inactive are those of the source.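 How the source made its calls: active means compounds whose mean half-maximal effective concentration EC50 is at most 20 µM; inactive means the rest.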
Target: G-protein coupled receptor 35 (Homo sapiens) (UniProt Q9HC97)
Experiment: GPR35-driven beta-arrestin-GFP translocation by analogs – imaging, U2OS, selectivity assay for NTR1 agonist project, SAR follow-up (AID 588503)

Chain of G-protein coupled receptor 35 (Homo sapiens) (Q9HC97 whole entry, looked up): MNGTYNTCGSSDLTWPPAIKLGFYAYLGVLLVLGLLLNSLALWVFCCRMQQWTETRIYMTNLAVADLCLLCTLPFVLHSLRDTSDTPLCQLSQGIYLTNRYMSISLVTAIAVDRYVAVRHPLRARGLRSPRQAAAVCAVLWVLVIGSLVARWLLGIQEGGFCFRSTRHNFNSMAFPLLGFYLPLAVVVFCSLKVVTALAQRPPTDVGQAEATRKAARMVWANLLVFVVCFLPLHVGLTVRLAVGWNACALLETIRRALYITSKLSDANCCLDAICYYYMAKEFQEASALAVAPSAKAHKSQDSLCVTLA

Row | Compound | EC50
1 | Cc1ccc(Cn2cc3c(-c4ccc(F)cc4)nnc-3c3cc4c(cc32)OCO4)cc1 | > 40 µM (inactive)
2 | COc1cccc(OC)c1-c1nc(C(=O)N[C@@H](CC(C)C)C(=O)O)cn1-c1cccc2ccccc12 | > 40 µM (inactive)
3 | CC(C)C[C@H](NC(=O)c1cn(-c2ccnc3cc(Cl)ccc23)c(-c2c(Cl)cccc2Cl)n1)C(=O)O | > 40 µM (inactive)
4 | CCN(CC)S(=O)(=O)c1ccc(-c2csc(N/N=C/c3ccco3)n2)cc1 | inactive
5 | COc1cccc(N2CCN(c3ncnc4c3cnn4-c3ccc(C)cc3C)CC2)c1 | > 40 µM (inactive)
6 | Cc1ccc(-n2ncc3c(N4CCN(c5ccccc5F)CC4)ncnc32)c(C)c1 | > 40 µM (inactive)
7 | CN(C)S(=O)(=O)c1ccc(-c2csc(N/N=C/c3cccs3)n2)cc1 | > 40 µM (inactive)
8 | Clc1ccccc1-n1ncc2c(N3CCN(c4ccccc4)CC3)ncnc21 | > 40 µM (inactive)
9 | CN(C)S(=O)(=O)c1ccc(-c2csc(N/N=C/c3ccco3)n2)cc1 | > 40 µM (inactive)
10 | COc1cccc(OC)c1-c1cc(C(=O)N[C@@H](CC(C)C)C(=O)O)nn1-c1ccnc2cc(Cl)ccc12 | > 40 µM (inactive)
11 | O=S(=O)(c1ccc(-c2csc(N/N=C/c3ccco3)n2)cc1)N1CCCC1 | > 40 µM (inactive)
12 | Cc1cc(Cl)ccc1-n1ncc2c(N3CCN(c4ccccc4)CC3)ncnc21 | > 40 µM (inactive)
13 | CCOc1ccc(-c2nnc3c4cc(OC)c(OC)cc4n(Cc4ccc(F)cc4)cc2-3)cc1 | inactive
14 | COc1cc2nc(C3CCC3)nc(N3CCN(c4ccccc4C)CC3)c2cc1OC | > 40 µM (inactive)
15 | COc1cc2nc(-c3ccccc3)nc(N3CCN(c4ccccc4OC)CC3)c2cc1OC | > 40 µM (inactive)
16 | COc1cccc(OC)c1-c1nc(C(=O)N[C@@H](CC(C)C)C(=O)O)cn1-c1ccnc2cc(Cl)ccc12 | > 40 µM (inactive)
17 | Cc1ccc(C)c(-n2ncc3c(N4CCN(c5ccccc5)CC4)ncnc32)c1 | > 40 µM (inactive)
18 | COc1ccc(Cn2c(SCc3cccc(C(F)(F)F)c3)nc3cc(OC)c(OC)cc3c2=N)cc1Cl | > 40 µM (inactive)
19 | COc1cccc(OC)c1-c1nc(C(=O)N[C@@H](CC(C)C)C(=O)O)cn1-c1ccnc2ccccc12 | > 40 µM (inactive)
20 | COc1ccc(Cn2c(SCc3ccccc3C)nc3cc(OC)c(OC)cc3c2=N)cc1Cl | > 40 µM (inactive)
21 | COc1ccc(Cn2c(SCc3ccccc3)nc3cc(OC)c(OC)cc3c2=N)cc1Cl | > 40 µM (inactive)
22 | COc1cc2nc(C3CCC3)nc(N3CCN(c4ccccc4OC)CC3)c2cc1OC | > 40 µM (inactive)
23 | Cc1ccc(-n2ncc3c(N4CCN(c5ccccc5)CC4)ncnc32)c(C)c1 | > 40 µM (inactive)
24 | Cc1cccc(C)c1-c1nc(C(=O)N[C@@H](CC(C)C)C(=O)O)cn1-c1ccnc2cc(Cl)ccc12 | > 40 µM (inactive)
25 | COc1ccccc1N1CCN(c2ncnc3c2cnn3-c2ccc(C)cc2C)CC1 | > 40 µM (inactive)
26 | COc1ccc(Cn2c(SCc3cc(C)ccc3C)nc3cc(OC)c(OC)cc3c2=N)cc1Cl | > 40 µM (inactive)
27 | COc1ccccc1-c1cc(C(=O)N[C@@H](CC(C)C)C(=O)O)nn1-c1ccnc2cc(Cl)ccc12 | > 40 µM (inactive)
28 | COc1ccc(Cn2c(SCc3ccc(C)cc3)nc3cc(OC)c(OC)cc3c2=N)cc1Cl | inactive

Next, values leading:

Row | EC50 | Compound
29 | 8.86 µM | COc1cc2c3nnc(-c4ccc(C)cc4)c-3cn(Cc3ccc(C)cc3)c2cc1OC
30 | inactive | CCOc1ccc(-c2nnc3c4cc(OC)c(OC)cc4n(Cc4ccccc4)cc2-3)cc1
31 | 8.32 µM | COc1cc2c3nnc(-c4ccc(Cl)cc4)c-3cn(Cc3ccc(F)cc3)c2cc1OC
32 | 13.6 µM | COc1cc2c3nnc(-c4ccc(F)cc4)c-3cn(Cc3ccc(F)cc3)c2cc1OC
33 | > 40 µM (inactive) | COc1cc2c3nnc(-c4ccc(Cl)cc4)c-3cn(Cc3ccc(C)cc3)c2cc1OC
34 | 6.07 µM | COc1cc2c3nnc(-c4ccc(F)cc4)c-3cn(Cc3cccc(C)c3)c2cc1OC
35 | 10.5 µM | COc1cc2c3nnc(-c4ccc(Cl)cc4)c-3cn(Cc3ccccc3)c2cc1OC
36 | inactive | COc1cc2c3nnc(-c4ccccc4)c-3cn(Cc3ccccc3)c2cc1OC
37 | 8.31 µM | COc1cc2c3nnc(-c4ccc(C)cc4)c-3cn(Cc3ccc(F)cc3)c2cc1OC
38 | 9.82 µM | COc1cc2c3nnc(-c4ccc(F)cc4)c-3cn(Cc3ccccc3)c2cc1OC
39 | > 40 µM (inactive) | CCOc1ccc(-c2nnc3c4cc(OC)c(OC)cc4n(Cc4ccc(C)cc4)cc2-3)cc1
40 | 6.26 µM | COc1ccc(-c2nnc3c4cc(OC)c(OC)cc4n(Cc4ccc(C)cc4)cc2-3)cc1
41 | 8.57 µM and 7.58 µM | COc1cc2c3nnc(-c4ccc(F)cc4)c-3cn(Cc3ccc(C)cc3)c2cc1OC
42 | inactive | COc1cc2c3nnc(-c4ccc(C)c(C)c4)c-3cn(Cc3ccccc3)c2cc1OC
